Test results reported in ChEMBL document CHEMBL3885861, “Open TG-GATES”.
*1 amine or outer side, *2 acyl side, *3 side chain or, on linkers, in order; H or OH if unused. Where a SMILES comes first, the peptide text is derived from it. Bridges are numbered along the chain shown (N, C = ends). [ ]: non-standard residue; d: D form. Trp(2-yl) = O=C([C@H](Cc1c([*:3])[nH]c2ccccc12)N[*:1])[*:2]; Leu(4R-OH,5-OH) = C[C@](O)(CO)C[C@H](N)C(=O)O; cisHyp = O=C(O)[C@@H]1C[C@H](O)CN1

Species on record: Rattus norvegicus
Experiment: Open TG-GATES - Regimen: Single
Type: toxicity, organism-based, Sprague-Dawley
Design: regimen Single, gender Male, age 6 weeks
Settings: in vivo, ip, 1 mg/kg, route intraperitoneal injection, dose level High; for APTT / Bas / Eos / Fbg / Hb / Ht / Lym / MCH / MCHC / MCV / Mono / Neu / PT / Plat / RBC / Ret / WBC: tissue Blood; for KIDNEY_L / KIDNEY_R / KIDNEY_TOTAL: tissue Kidney; for LIVER: tissue Liver; for A/G / ALP / ALT / AST / BUN / CRE / Ca / Cl / DBIL / GLC / IP / K / LDH / Na / PL / RALB / TBIL / TC / TG / TP / gamma-GTP: tissue Plasma

C[C@@H]1NC(=O)[C@H](C[C@@](C)(O)CO)NC(=O)[C@@H]2Cc3c([nH]c4ccccc34)SC[C@H](NC(=O)[C@@H]([C@H](C)O)NC1=O)C(=O)N1C[C@@H](O)C[C@H]1C(=O)N[C@@H](C)C(=O)N2 [PHALLOIDIN] (cyclo(A[dT]C[cisHyp]A[Trp(2-yl)][Leu(4R-OH,5-OH)]); thioether 3-6)
TERMINAL_BW (3 h): 211.9 g | APTT (3 h): 21.8 s | Bas (3 h): 0% | Eos (3 h): 0% | Fbg (3 h): 259.6 mg/dL | Hb (3 h): 12.4 g/dL | Ht (3 h): 39.5% | Lym (3 h): 73.8% | MCH (3 h): 20 pg | MCHC (3 h): 31.5% | MCV (3 h): 63.3 fL | Mono (3 h): 2.6% | Neu (3 h): 22.6% | PT (3 h): 15.9 s | Plat (3 h): 108.1 x10_4/uL | RBC (3 h): 623.8 x10_4/ul | Ret (3 h): 7.7% | WBC (3 h): 66 x10_2/uL | KIDNEY_L (3 h): 1 g | KIDNEY_R (3 h): 1 g | KIDNEY_TOTAL (3 h): 2 g | LIVER (3 h): 9.1 g | A/G (3 h): 1.2 | ALP (3 h): 1810.8 IU/L | ALT (3 h): 49.6 IU/L | AST (3 h): 110 IU/L | BUN (3 h): 12 mg/dL | CRE (3 h): 0.2 mg/dL | Ca (3 h): 10.4 mg/dL | Cl (3 h): 107.8 meq/L | DBIL (3 h): 0.006 mg/dL | GLC (3 h): 184.8 mg/dL | IP (3 h): 8.6 mg/dL | K (3 h): 4 meq/L | LDH (3 h): 235.2 IU/L | Na (3 h): 139.6 meq/L | PL (3 h): 125.8 mg/dL | RALB (3 h): 2.7 g/dL | TBIL (3 h): 0.012 mg/dL | TC (3 h): 78.6 mg/dL | TG (3 h): 36.2 mg/dL | TP (3 h): 4.9 g/dL | gamma-GTP (3 h): 1.6 IU/L | TERMINAL_BW (6 h): 210 g | APTT (6 h): 22.3 s | Bas (6 h): 0% | Eos (6 h): 0.2% | Fbg (6 h): 286.6 mg/dL | Hb (6 h): 12.5 g/dL | Ht (6 h): 39.2% | Lym (6 h): 79.6% | MCH (6 h): 20 pg | MCHC (6 h): 31.9% | MCV (6 h): 62.6 fL | Mono (6 h): 2% | Neu (6 h): 17.4% | PT (6 h): 15.9 s | Plat (6 h): 111.9 x10_4/uL | RBC (6 h): 626 x10_4/ul | Ret (6 h): 6.8% | WBC (6 h): 90.8 x10_2/uL | KIDNEY_L (6 h): 0.9 g | KIDNEY_R (6 h): 1 g | KIDNEY_TOTAL (6 h): 1.9 g | LIVER (6 h): 9.2 g | A/G (6 h): 1.3 | ALP (6 h): 1613.8 IU/L | ALT (6 h): 56.6 IU/L | AST (6 h): 114.6 IU/L | BUN (6 h): 14.8 mg/dL | CRE (6 h): 0.2 mg/dL | Ca (6 h): 10.3 mg/dL | Cl (6 h): 106.2 meq/L | DBIL (6 h): 0 mg/dL | GLC (6 h): 186.4 mg/dL | IP (6 h): 7.6 mg/dL | K (6 h): 3.9 meq/L | LDH (6 h): 232 IU/L | Na (6 h): 142 meq/L | PL (6 h): 141 mg/dL | RALB (6 h): 2.9 g/dL | TBIL (6 h): 0.004 mg/dL | TC (6 h): 90.4 mg/dL | TG (6 h): 65.8 mg/dL | TP (6 h): 5.1 g/dL | gamma-GTP (6 h): 1.8 IU/L | TERMINAL_BW (9 h): 208.3 g | APTT (9 h): 20.7 s | Bas (9 h): 0% | Eos (9 h): 0.4% | Fbg (9 h): 291.6 mg/dL | Hb (9 h): 12.3 g/dL | Ht (9 h): 39.3% | Lym (9 h): 80.6% | MCH (9 h): 20.2 pg | MCHC (9 h): 31.4% | MCV (9 h): 64.4 fL | Mono (9 h): 2.4% | Neu (9 h): 15.4% | PT (9 h): 15.3 s | Plat (9 h): 114.2 x10_4/uL | RBC (9 h): 610.4 x10_4/ul | Ret (9 h): 7.8% | WBC (9 h): 75 x10_2/uL | KIDNEY_L (9 h): 0.9 g | KIDNEY_R (9 h): 0.9 g | KIDNEY_TOTAL (9 h): 1.9 g | LIVER (9 h): 9.2 g | A/G (9 h): 1.3 | ALP (9 h): 1636.4 IU/L | ALT (9 h): 56.8 IU/L | AST (9 h): 109.6 IU/L | BUN (9 h): 12.8 mg/dL | CRE (9 h): 0.2 mg/dL | Ca (9 h): 10.4 mg/dL | Cl (9 h): 106.4 meq/L | DBIL (9 h): 0 mg/dL | GLC (9 h): 180.4 mg/dL | IP (9 h): 7.9 mg/dL | K (9 h): 4.3 meq/L | LDH (9 h): 158.2 IU/L | Na (9 h): 140.4 meq/L | PL (9 h): 144 mg/dL | RALB (9 h): 2.9 g/dL | TBIL (9 h): 0.008 mg/dL | TC (9 h): 97.4 mg/dL | TG (9 h): 63.2 mg/dL | TP (9 h): 5.1 g/dL | gamma-GTP (9 h): 1.6 IU/L | TERMINAL_BW (24 h): 220.3 g | APTT (24 h): 21.7 s | Bas (24 h): 0% | Eos (24 h): 0.8% | Fbg (24 h): 304.4 mg/dL | Hb (24 h): 12.5 g/dL | Ht (24 h): 39.6% | Lym (24 h): 81.2% | MCH (24 h): 20.3 pg | MCHC (24 h): 31.7% | MCV (24 h): 64 fL | Mono (24 h): 1.8% | Neu (24 h): 15.6% | PT (24 h): 15.4 s | Plat (24 h): 119.9 x10_4/uL | RBC (24 h): 619.8 x10_4/ul | Ret (24 h): 7.6% | WBC (24 h): 71.5 x10_2/uL | KIDNEY_L (24 h): 1 g | KIDNEY_R (24 h): 1 g | KIDNEY_TOTAL (24 h): 2.1 g | LIVER (24 h): 10.2 g | A/G (24 h): 1.2 | ALP (24 h): 1849.4 IU/L | ALT (24 h): 45 IU/L | AST (24 h): 81.6 IU/L | BUN (24 h): 15.2 mg/dL | CRE (24 h): 0.1 mg/dL | Ca (24 h): 10.7 mg/dL | Cl (24 h): 106.8 meq/L | DBIL (24 h): 0.002 mg/dL | GLC (24 h): 189.2 mg/dL | IP (24 h): 8.2 mg/dL | K (24 h): 4.4 meq/L | LDH (24 h): 191 IU/L | Na (24 h): 141.6 meq/L | PL (24 h): 147.2 mg/dL | RALB (24 h): 2.8 g/dL | TBIL (24 h): 0.002 mg/dL | TC (24 h): 95.8 mg/dL | TG (24 h): 74 mg/dL | TP (24 h): 5.3 g/dL | gamma-GTP (24 h): 1.6 IU/L
